These results are taken from patent US20070117808A1, “Substituted Cycloalkylpyrrolones As Allosteric Modulators Of Glucokinase” (priority 2005, published 2007).

For experiment [1], the target named is T1, human liver Glucokinase (GK) (Homo sapiens, UniProt P35557).
T1 construct: (His)6; made in house; host or cells: Escherichia coli
T1 sequence (P35557 1-466 isoform P35557-2): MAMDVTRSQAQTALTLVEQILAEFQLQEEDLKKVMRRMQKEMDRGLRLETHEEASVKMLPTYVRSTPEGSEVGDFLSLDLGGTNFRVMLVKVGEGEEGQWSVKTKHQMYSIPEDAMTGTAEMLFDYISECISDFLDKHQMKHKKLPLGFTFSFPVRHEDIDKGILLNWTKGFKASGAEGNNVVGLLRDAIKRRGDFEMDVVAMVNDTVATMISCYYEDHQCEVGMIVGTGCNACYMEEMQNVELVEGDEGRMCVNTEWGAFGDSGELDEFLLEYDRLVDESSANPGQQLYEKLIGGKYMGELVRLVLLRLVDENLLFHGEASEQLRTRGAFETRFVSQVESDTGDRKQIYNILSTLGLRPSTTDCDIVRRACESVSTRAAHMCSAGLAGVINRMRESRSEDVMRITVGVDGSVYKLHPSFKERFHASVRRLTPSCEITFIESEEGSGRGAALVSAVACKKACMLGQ
In words: Glucokinase enzyme assay, liver GK. It is filed as biochemical. The source says: (§1) An enzymatic Glucokinase (GK) assay using purified recombinant human liver/pancreas enzyme was used to evaluate the effects of potential small molecule modulators.
(§2) In this assay, GK catalyzes glucose phosphorylation in the presence of ATP. The product of this reaction, glucose-6-phosphate, was then oxidized by an excess of glucose-6-phosphate dehydrogenase to produce gluconate-6-phosphate with concomitant reduction of nicotinamide adenine dinucleotide (NAD). […] Human GK (Liver/Pancreas) was expressed in Escherichia coli as a (His) 6-tagged fusion protein and was purified by metal chelate affinity chromatography. The assay was performed in a final incubation volume of 80 μl in a 96-well clear low UV absorption plates. The incubation mixture consisted of 25 mM HEPES, 2 mM MgSO4, 1 mM dithiothreotol (DTT), 1 mg/mL bovine serum albumin (BSA), 1 mM ATP, 1 mM NAD, and 12 mM glucose, 10 units per mL glucose-6-phosphate dehydrogenase, and +/−300 ng per mL GK. For determination of the affinity (Km) and Vmax, different concentrations of glucose ranging from 0.5 mM to 40 mM were used in the assay; see Grimsby, J., Sarabu, R.; Grippo, J. F.; et. al. Science 2003, 301, 370-373. Production of reduced NAD (Nicotinamide Adenine Dinucleotide) was measured as changes in absorption at 340 nm in 96-well plate reader (Envision model # 2101 Multilabel Plate reader). % Activation @ 50 μM was calculated as the percentage increase in GK activity above the vehicle control with the effective concentration of the compound being 50 μM. EC50% (μM) was calculated as the effective concentration of the compound that produces 50% activation above the vehicle control, and EC100% (μM) was calculated as the effective concentration of the compound that produces 100% activation above the vehicle control.

The target in experiment [2] is T2, human pancreas Glucokinase (GK) (Homo sapiens, UniProt P35557).
T2 construct: (His)6; made in house; host or cells: Escherichia coli
T2 sequence (P35557 1-465): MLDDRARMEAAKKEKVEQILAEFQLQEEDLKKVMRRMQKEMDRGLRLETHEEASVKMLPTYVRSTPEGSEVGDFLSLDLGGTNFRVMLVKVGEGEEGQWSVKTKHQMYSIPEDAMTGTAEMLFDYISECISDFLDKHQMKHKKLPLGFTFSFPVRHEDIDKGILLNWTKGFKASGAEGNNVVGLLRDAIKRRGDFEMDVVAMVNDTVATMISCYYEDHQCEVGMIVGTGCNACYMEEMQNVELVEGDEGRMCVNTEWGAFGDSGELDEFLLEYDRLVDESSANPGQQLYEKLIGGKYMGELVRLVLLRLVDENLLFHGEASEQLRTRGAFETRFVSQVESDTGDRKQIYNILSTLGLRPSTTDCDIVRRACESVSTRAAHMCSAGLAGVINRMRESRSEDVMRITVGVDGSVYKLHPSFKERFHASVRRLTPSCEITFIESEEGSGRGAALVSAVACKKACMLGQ
In words: Glucokinase enzyme assay, pancreas GK. It is filed as biochemical.
Description: as §1, §2

[3] abbreviates: concentration that produces 50% activation above the vehicle control.
Setting [4] is: concentration that produces 100% activation above the vehicle control.
[5] abbreviates: percentage increase in GK activity above vehicle control, compound 50 μM, 12 mM glucose.

Regarding `COc1ccc(CN2C(=O)C3=C(CCCC3)C2SCC(=O)Nc2ccc(C)cn2)cc1OC` (stereo not drawn) [Compound 11, 2-[2-(3,4-Dimethoxy-benzyl)-3-oxo-2,3,4,5,6,7-hexahydro-1H-isoindol-1-ylsulfanyl]-N-(5-methyl-pyridin-2-yl)-acetamide], the EC50 in experiment [1] (setting [3]) stood at 550 nM; in experiment [2] (setting [3]), 800 nM. In addition, the “EC100%” value in experiment [1] (setting [4]) amounted to 3.5 µM; in experiment [2] (setting [4]), 5.7 µM. Further, the activation at 50 µM in experiment [1] (setting [5]) was found to be 202%; in experiment [2] (setting [5]) it was 168%.
